14 compounds from PubChem BioAssay AID212 (DTP/NCI, 2004) can be followed below.

Where “and” joins values, the source holds several entries; their conditions need not be identical. Equal values may be shown once. Records with an inconclusive call do not appear.

The test system of this assay is BDF1 mice, colon carcinoma 38 sc, T/C %. Description: NCI In Vivo Anticancer Drug Screen. Data for tumor model Colon Carcinoma 38 (subcutaneous) in B6D2F1 (BDF1) mice. A digest of the protocol:
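Ratio of survival or tumor size, compound-treated animals relative to vehicle controls, in tumor-bearing mice.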

Where [1] appears, read: endpoint: median tumor weight (est.), dose: 50.0 mg/kg/injection, schedule: Q07DX002 (ip), vehicle: saline, higher = larger tumour.
Setting [2] is: endpoint: median tumor weight (est.), dose: 100.0 mg/kg/injection, schedule: Q07DX002 (ip), vehicle: saline, higher = larger tumour.
Where [3] appears, read: endpoint: median tumor weight (est.), dose: 200.0 mg/kg/injection, schedule: Q07DX002 (ip), vehicle: saline, higher = larger tumour.
[4] abbreviates: endpoint: median tumor weight (est.), dose: 400.0 mg/kg/injection, schedule: Q07DX002 (ip), vehicle: saline, higher = larger tumour.
Where [5] appears, read: endpoint: median tumor weight (est.), dose: 800.0 mg/kg/injection, schedule: Q07DX002 (ip), vehicle: saline, higher = larger tumour.
Setting [6] is: endpoint: median tumor weight (est.), dose: 1600.0 mg/kg/injection, schedule: Q07DX002 (ip), vehicle: saline, higher = larger tumour.
[7] abbreviates: endpoint: median tumor weight (est.), dose: 12.5 mg/kg/injection, schedule: Q07DX002 (ip), vehicle: saline with Tween-80, higher = larger tumour.
Where [8] appears, read: endpoint: median tumor weight (est.), dose: 25.0 mg/kg/injection, schedule: Q07DX002 (ip), vehicle: saline with Tween-80, higher = larger tumour.
Where [9] appears, read: endpoint: median tumor weight (est.), dose: 100.0 mg/kg/injection, schedule: Q07DX002 (ip), vehicle: saline with Tween-80, higher = larger tumour.
[10] abbreviates: endpoint: median tumor weight (est.), dose: 50.0 mg/kg/injection, schedule: Q07DX002 (ip), vehicle: saline with Tween-80, higher = larger tumour.
The mark [11] stands for this setting: endpoint: median tumor weight (est.), dose: 200.0 mg/kg/injection, schedule: Q07DX002 (ip), vehicle: saline with Tween-80, higher = larger tumour.
[12] abbreviates: endpoint: median tumor weight (est.), dose: 400.0 mg/kg/injection, schedule: Q07DX002 (ip), vehicle: saline with Tween-80, higher = larger tumour.
[13] abbreviates: endpoint: median tumor weight (est.), dose: 25.0 mg/kg/injection, schedule: Q07DX002 (ip), vehicle: saline, higher = larger tumour.

For `Cc1cc2nc3c(=O)[nH]c(=O)nc-3n(CC(O)C(O)C(O)C(O)CO)c2cc1C` (stereo not given), the T/C runs as follows: under setting [1], 100 % of control; under setting [2], 124 % of control; (endpoint: median tumor weight (est.), dose: 100.0 mg/kg/injection, schedule: Q07DX002 (ip), vehicle: suspension in saline, higher = larger tumour) 77 % of control; under setting [3], 108 % of control; under setting [4], 100 % of control; under setting [5], 78 % of control. The T/C (endpoint: median tumor weight (est.), dose: 800.0 mg/kg/injection, schedule: Q07DX002 (ip), vehicle: suspension in saline, higher = larger tumour) was 58 % of control and 69 % of control; the T/C under setting [6] was 72 % of control.

As for `O=c1[nH]cc(F)c(=O)[nH]1`, the T/C is 119 % of control (endpoint: median survival time, dose: 16.2 mg/kg/injection, schedule: Q04DX002 (ip), vehicle: saline, higher = longer survival); 199 % of control (endpoint: median survival time, dose: 21.1 mg/kg/injection, schedule: Q01DX010 (ip), vehicle: saline, higher = longer survival); 199 % of control (endpoint: median survival time, dose: 34.0 mg/kg/injection, schedule: Q01DX010 (ip), vehicle: saline, higher = longer survival); 119 % of control (endpoint: median survival time, dose: 36.0 mg/kg/injection, schedule: Q04DX003 (ip), vehicle: saline, higher = longer survival); 122 % of control (endpoint: median survival time, dose: 42.0 mg/kg/injection, schedule: Q04DX004 (ip), vehicle: saline, higher = longer survival); 197 % of control and 204 % of control (endpoint: median survival time, dose: 60.0 mg/kg/injection, schedule: Q04DX004 (ip), vehicle: alkali diluted with saline, higher = longer survival). The T/C runs as follows: (endpoint: median survival time, dose: 73.0 mg/kg/injection, schedule: Q07DX003 (iv), vehicle: saline, higher = longer survival) 124 % of control; (endpoint: median survival time, dose: 75.0 mg/kg/injection, schedule: Q04DX002 (ip), vehicle: saline, higher = longer survival) 233 % of control; (endpoint: median survival time, dose: 100.0 mg/kg/injection, schedule: Q04DX004 (ip), vehicle: alkali diluted with saline, higher = longer survival) 72 % of control; (endpoint: median survival time, dose: 167.0 mg/kg/injection, schedule: Q04DX004 (ip), vehicle: alkali diluted with saline, higher = longer survival) 57 % of control; (endpoint: median tumor weight (est.), dose: 21.6 mg/kg/injection, schedule: Q04DX004 (ip), vehicle: saline, higher = larger tumour) 65 % of control; (endpoint: median tumor weight (est.), dose: 36.0 mg/kg/injection, schedule: Q04DX004 (ip), vehicle: saline, higher = larger tumour) 38 % of control.

For `O=C1NC(=O)/C(=C/C=C/c2ccccc2)S1`, the T/C reads like this: (endpoint: median tumor weight (est.), dose: 1.81 mg/kg/injection, schedule: Q07DX002 (ip), vehicle: saline with Tween-80, higher = larger tumour) 70 % of control; (endpoint: median tumor weight (est.), dose: 3.62 mg/kg/injection, schedule: Q07DX002 (ip), vehicle: saline with Tween-80, higher = larger tumour) 198 % of control; (endpoint: median tumor weight (est.), dose: 7.25 mg/kg/injection, schedule: Q07DX002 (ip), vehicle: saline with Tween-80, higher = larger tumour) 84 % of control; under setting [7], 117 % of control and 100 % of control; (endpoint: median tumor weight (est.), dose: 14.5 mg/kg/injection, schedule: Q07DX002 (ip), vehicle: saline with Tween-80, higher = larger tumour) 85 % of control; under setting [8], 65 % of control and 80 % of control. Moreover, the T/C reads like this: (endpoint: median tumor weight (est.), dose: 29.0 mg/kg/injection, schedule: Q07DX002 (ip), vehicle: saline with Tween-80, higher = larger tumour) 69 % of control; (endpoint: median tumor weight (est.), dose: 58.0 mg/kg/injection, schedule: Q07DX002 (ip), vehicle: saline with Tween-80, higher = larger tumour) 78 % of control; under setting [9], 175 % of control.

As for `CCCCOC(=O)/C=C(\Br)C(=O)OCCCC`, the T/C is 76 % of control and 98 % of control under setting [8]; 71 % of control and 85 % of control under setting [10]; 84 % of control and 91 % of control under setting [9]; 81 % of control and 85 % of control under setting [11]; 69 % of control under setting [12].

As for `CN(C)CCC(=O)C(=Cc1ccc(O)cc1)C(=O)CCN(C)C`, the T/C under setting [13] is 97 % of control, the T/C under setting [1] is 112 % of control and the T/C under setting [2] was 77 % of control.

In the case of `Cc1c(N)nc([C@H](CC(N)=O)NC[C@H](N)C(N)=O)nc1C(=O)N[C@H](C(=O)N[C@H](C)[C@@H](O)[C@H](C)C(=O)N[C@H](C(=O)NCCc1nc(-c2nc(C(=O)NCCC[S+](C)C)cs2)cs1)[C@@H](C)O)C(OC1OC(CO)C(O)C(O)C1OC1OC(CO)C(O)C(OC(N)=O)C1O)c1cnc[nH]1` (stereo not given in full), the T/C was 62 % of control (endpoint: median tumor weight (est.), dose: 3.0 mg/kg/injection, schedule: Q07DX003 (ip), vehicle: saline, higher = larger tumour); 88 % of control (endpoint: median tumor weight (est.), dose: 6.0 mg/kg/injection, schedule: Q07DX003 (ip), vehicle: saline, higher = larger tumour); 63 % of control (endpoint: median tumor weight (est.), dose: 12.0 mg/kg/injection, schedule: Q07DX003 (ip), vehicle: saline, higher = larger tumour); 85 % of control (endpoint: median tumor weight (est.), dose: 24.0 mg/kg/injection, schedule: Q07DX003 (ip), vehicle: saline, higher = larger tumour); 60 % of control (endpoint: median tumor weight (est.), dose: 48.0 mg/kg/injection, schedule: Q07DX003 (ip), vehicle: saline, higher = larger tumour).

As for `O=C1OCC2C(=O)OCC12` (stereo not given), the T/C is 103 % of control under setting [8], 46 % of control under setting [9], 120 % of control under setting [11] and 69 % of control under setting [12].

With `O=C(Nc1ccccc1)c1c(O)[nH]c(=S)[nH]c1=O`, the T/C is 68 % of control (endpoint: median tumor weight (est.), dose: 112.0 mg/kg/injection, schedule: Q07DX002 (ip), vehicle: saline with Tween-80, higher = larger tumour) and 51 % of control (endpoint: median tumor weight (est.), dose: 225.0 mg/kg/injection, schedule: Q07DX002 (ip), vehicle: saline with Tween-80, higher = larger tumour).

With `COC1CC(CC2CCC(C)C(C(C)C(=O)O)O2)OC2(OC(C)(C3CCC(C)(C4OC(C5OC(O)(CO)C(C)CC5C)CC4C)O3)CC2C)C1C` (stereo not given), the T/C is, setting by setting: (endpoint: median tumor weight (est.), dose: 0.3 mg/kg/injection, schedule: Q07DX002 (ip), vehicle: Klucel (hydroxypropylcellulose) (HPC), higher = larger tumour) 61 % of control; (endpoint: median tumor weight (est.), dose: 0.31 mg/kg/injection, schedule: Q07DX002 (ip), vehicle: Klucel (hydroxypropylcellulose) (HPC), higher = larger tumour) 42 % of control; (endpoint: median tumor weight (est.), dose: 1.25 mg/kg/injection, schedule: Q07DX002 (ip), vehicle: Klucel (hydroxypropylcellulose) (HPC), higher = larger tumour) 74 % of control and 82 % of control; (endpoint: median tumor weight (est.), dose: 2.5 mg/kg/injection, schedule: Q07DX002 (ip), vehicle: Klucel (hydroxypropylcellulose) (HPC), higher = larger tumour) 58 % of control and 70 % of control; (endpoint: median tumor weight (est.), dose: 5.0 mg/kg/injection, schedule: Q07DX002 (ip), vehicle: Klucel (hydroxypropylcellulose) (HPC), higher = larger tumour) 46 % of control and 55 % of control; (endpoint: median tumor weight (est.), dose: 10.0 mg/kg/injection, schedule: Q07DX002 (ip), vehicle: Klucel (hydroxypropylcellulose) (HPC), higher = larger tumour) 52 % of control.

`CC1(c2ccc(Cl)cc2)OC(=O)C(=Cc2ccc([N+](=O)[O-])s2)C(=O)O1` (stereo not given): the T/C reads like this: under setting [7], 77 % of control; under setting [8], 63 % of control; under setting [10], 101 % of control; under setting [9], 100 % of control; under setting [11], 79 % of control.

With `CC(=O)Nc1cscc1NC(C)=O`, the T/C was 115 % of control under setting [10]; 91 % of control under setting [9]; 66 % of control under setting [11]; 93 % of control under setting [12]; 73 % of control (endpoint: median tumor weight (est.), dose: 800.0 mg/kg/injection, schedule: Q07DX002 (ip), vehicle: saline with Tween-80, higher = larger tumour).

For `CCC(=O)N(C)[C@@H](C)C(=O)O[C@H]1CC(=O)N(C)c2cc(cc(OC)c2Cl)C/C(C)=C/C=C[C@@H](OC)[C@@]2(O)C[C@H](OC(=O)N2)[C@@H](C)[C@@H]2O[C@@]12C`, the T/C (endpoint: median tumor weight (est.), dose: 7.5 micrograms/kg/injection, schedule: Q07DX002 (ip), vehicle: saline + alcohol, higher = larger tumour) was 62 % of control; the T/C (endpoint: median tumor weight (est.), dose: 30.0 micrograms/kg/injection, schedule: Q07DX002 (ip), vehicle: saline + alcohol, higher = larger tumour) was 84 % of control; the T/C (endpoint: median tumor weight (est.), dose: 120.0 micrograms/kg/injection, schedule: Q07DX002 (ip), vehicle: saline + alcohol, higher = larger tumour) is 108 % of control.

For the compound `COC(=O)C(N)Cc1ccc(O)c(O)c1` (stereo not given), the T/C runs as follows: under setting [1], 85 % of control; under setting [2], 113 % of control; under setting [3], 88 % of control; under setting [4], 99 % of control; under setting [5], 110 % of control; under setting [6], 51 % of control.

Consider `O=[Te]=O`, for which the T/C is 98 % of control under setting [13] and 93 % of control under setting [1].
